Consider three compounds from publication PMC3776780, “Dual p38/JNK Mitogen Activated Protein Kinase Inhibitors Prevent Ozone-Induced Airway Hyperreactivity in Guinea Pigs” (PLoS ONE, 2013).

Where two headings read alike, the source gives them in different places.

In one assay the target is CDK2 (Homo sapiens, UniProt P24941). As to the kind of experiment: spectrophotometric coupled-enzyme kinase inhibition assay. The format is biochemical. To be noted: read-out: Ki or IC50 CDK2. How it is done:
(§1) Affinity was measured using a kinase inhibition assay. Compounds were assayed for the inhibition of various kinases using a modification of a spectrophotometric coupled-enzyme assay. In this assay, a fixed concentration of activated kinase (10–40 nM) was incubated with various concentrations of a potential inhibitor dissolved in DMSO for 10 minutes at 30°C in a buffer containing 0.1 M HEPES, pH 7.5, containing 10 mM MgCl2, 2.5 mM phosphoenolpyruvate, 200 µM NADH, 2 mM DTT, 30 µg/mL pyruvate kinase, 10 µg/mL lactate dehydrogenase, and 200 µM–500 µM EGF receptor peptide. The EGF receptor peptide has the sequence […]. The reaction was initiated by the addition of ATP equal to the ATP Km of the kinase, and the assay plate is inserted into the spectrophotometer’s assay plate compartment that was maintained at 30°C. The decrease of absorbance at 340 nm was monitored as a function of time for 10 minutes. The rate data as a function of inhibitor concentration was either fit as an IC50 or to a competitive inhibition kinetic model to determine the compound Ki (see table 1).

A further assay has as its target ERK2 (Homo sapiens, UniProt P28482). The assay is described as above. The format is biochemical. As to conditions: read-out: Ki or IC50 ERK2. The procedure: as §1
Another assay concerns the target GSK3β (Homo sapiens, UniProt P49841). The description is as above. The assay is classed as biochemical. How it is done:
as §1

The target in a further assay is JNK2 (Homo sapiens, UniProt P45984). Described as above. The assay is classed as biochemical. As to conditions: ATP equal to Km, 30°C. How it is done:
as §1

A further assay concerns the target T1, MKK4 (Homo sapiens, UniProt P45985).
T1 sequence (P45985 1-399): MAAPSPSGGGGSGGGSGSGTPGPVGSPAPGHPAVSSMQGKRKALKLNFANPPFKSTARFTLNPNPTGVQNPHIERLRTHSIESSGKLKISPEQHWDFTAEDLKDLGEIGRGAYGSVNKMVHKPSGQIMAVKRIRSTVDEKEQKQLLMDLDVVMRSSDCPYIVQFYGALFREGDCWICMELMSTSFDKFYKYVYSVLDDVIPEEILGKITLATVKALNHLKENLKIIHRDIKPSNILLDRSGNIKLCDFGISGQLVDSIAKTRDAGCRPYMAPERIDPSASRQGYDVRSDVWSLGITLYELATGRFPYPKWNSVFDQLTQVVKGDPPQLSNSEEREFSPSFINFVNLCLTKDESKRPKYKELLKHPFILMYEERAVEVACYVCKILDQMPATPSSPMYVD
The description is as above. The assay is classed as biochemical. To be noted: read-out: Ki or IC50 MKK4. The procedure: as §1

In a further assay the target is PKA (Homo sapiens, UniProt P17612). The assay is described as above. The format is biochemical. To be noted: read-out: Ki or IC50 PKA. How it is done:
as §1

The target in a further assay is ROCK1 (Homo sapiens, UniProt Q13464). Described as above. The format is biochemical. As to conditions: read-out: Ki or IC50 ROCK1. How it is done: as §1
The next assay deals with cMET (Homo sapiens, UniProt P08581). The assay is described as above. The assay is classed as biochemical. As to conditions: read-out: Ki or IC50 cMET. How it is done:
as §1

Another assay deals with p38 (Homo sapiens, UniProt Q16539). The assay is described as above. The format is biochemical. To be noted: ATP equal to Km, 30°C. How it is done:
as §1

The nature of assay [1]: baseline cardiovascular and pulmonary parameters one day after ozone or air exposure. The assay is classed as in vivo, guinea pigs. To be noted: ozone-exposed (2 ppm, 4 h), inhibitor 30 mg/kg ip 1 h before, one day post-exposure, mean ± SEM. The procedure:
(§2) Guinea pigs were exposed to 2 ppm ozone or filtered air for 4 hours as described previously. Physiological measurements, airway inflammation, and histological measurements were made one day after a single ozone exposure.
(§3) Animals were given 30 mg/kg intraperitoneally of the dual p38 and JNK MAPK inhibitors V-05-013, V-05-014, or V-05-015 (Vertex Pharmaceuticals, Cambridge, MA) one hour before ozone exposure (Figure 1). These compounds were chosen because of their overall kinase selectivity profile. […] Inhibitors were dissolved in 25% DMSO in phosphate buffered saline (PBS). Air exposed control animals were given 25% DMSO in PBS one hour before ozone exposure.
One day after exposure to ozone, guinea pigs were anesthetized with 1.9 g/kg urethane i.p. (Sigma-Aldrich, St. Louis, MO). This dose produces a deep anesthesia lasting 8–10 hours though no experiments lasted longer than 4 hours.
(§4) Physiological measurements were made as previously described. The jugular veins were cannulated for intravenous administration of drugs and the right carotid artery was cannulated to measure heart rate and blood pressure. Both vagus nerves were cut and distal ends placed on platinum electrodes submerged in liquid paraffin. Animals were tracheostomized, ventilated (1 ml/100 g body weight, 100 breaths per minute) and paralyzed with a constant infusion of succinylcholine (10 µg/kg/min iv, Sigma-Aldrich). Pulmonary inflation pressure was measured at the trachea and bronchoconstriction was measured as the increase in pressure over basal inflation pressure produced by the ventilator.

For assay [2], the system named is ozone-induced airway hyperreactivity mediated by the vagus nerves. Description: vagally induced bronchoconstriction (airway hyperreactivity). The format is in vivo, guinea pigs. As to conditions: ozone-exposed, 30 mg/kg ip 1 h before ozone, one day post-exposure, vagal stimulation 1–25 Hz. The procedure: as §2, §3, §4
(§5) Electrical stimulation of both vagus nerves (10V, 0.2 ms pulse width, 1–25 Hz, 5 sec duration at 1 minute intervals) produced frequency dependent bronchoconstriction and bradycardia due to release of acetylcholine onto muscarinic receptors.

Assay [3] deals with neuronal M2 muscarinic receptors. Description: neuronal M2 muscarinic receptor function (gallamine potentiation of vagally induced bronchoconstriction). The assay is classed as in vivo, guinea pigs. As to conditions: ozone-exposed, 30 mg/kg ip 1 h before ozone, gallamine 0.1–10 mg/kg iv. How it is done:
as §2, §3
Recovery from administration of intravenous acetylcholine was confirmed by pulmonary inflation pressure and heart rate returning to baseline before measuring M2 muscarinic receptor function (5–10 minutes after the last dose of acetylcholine).

The test system of assay [4] is M3 muscarinic receptor function on airway smooth muscle. Description: smooth muscle M3 muscarinic receptor function (bronchoconstriction to intravenous acetylcholine). The format is in vivo, guinea pigs. As to conditions: acetylcholine 1–10 µg/kg iv; for effect on ozone-induced potentiation of bronchoconstriction to intravenous acetylcholine: ozone-exposed, 30 mg/kg ip 1 h before ozone. The procedure: as §2, §3
Recovery from vagal stimulation was confirmed by pulmonary inflation pressure and heart rate returning to baseline before measuring smooth muscle M3 muscarinic receptor function (5–10 minutes after cessation of vagal stimulation). In vagotomized guinea pigs, M3 muscarinic receptor function on airway smooth muscle was tested by measuring bronchoconstriction after administration of acetylcholine (1–10 µg/kg iv, Sigma-Aldrich).

In assay [5] the test system is vagally mediated falls in heart rate. Description: falls in heart rate in response to vagal stimulation. To be noted: ozone-exposed, 30 mg/kg ip 1 h before ozone. The assay is classed as in vivo, guinea pigs. The procedure: as §2, §3, §4, §5

cMET, sequence (P08581 25-1390): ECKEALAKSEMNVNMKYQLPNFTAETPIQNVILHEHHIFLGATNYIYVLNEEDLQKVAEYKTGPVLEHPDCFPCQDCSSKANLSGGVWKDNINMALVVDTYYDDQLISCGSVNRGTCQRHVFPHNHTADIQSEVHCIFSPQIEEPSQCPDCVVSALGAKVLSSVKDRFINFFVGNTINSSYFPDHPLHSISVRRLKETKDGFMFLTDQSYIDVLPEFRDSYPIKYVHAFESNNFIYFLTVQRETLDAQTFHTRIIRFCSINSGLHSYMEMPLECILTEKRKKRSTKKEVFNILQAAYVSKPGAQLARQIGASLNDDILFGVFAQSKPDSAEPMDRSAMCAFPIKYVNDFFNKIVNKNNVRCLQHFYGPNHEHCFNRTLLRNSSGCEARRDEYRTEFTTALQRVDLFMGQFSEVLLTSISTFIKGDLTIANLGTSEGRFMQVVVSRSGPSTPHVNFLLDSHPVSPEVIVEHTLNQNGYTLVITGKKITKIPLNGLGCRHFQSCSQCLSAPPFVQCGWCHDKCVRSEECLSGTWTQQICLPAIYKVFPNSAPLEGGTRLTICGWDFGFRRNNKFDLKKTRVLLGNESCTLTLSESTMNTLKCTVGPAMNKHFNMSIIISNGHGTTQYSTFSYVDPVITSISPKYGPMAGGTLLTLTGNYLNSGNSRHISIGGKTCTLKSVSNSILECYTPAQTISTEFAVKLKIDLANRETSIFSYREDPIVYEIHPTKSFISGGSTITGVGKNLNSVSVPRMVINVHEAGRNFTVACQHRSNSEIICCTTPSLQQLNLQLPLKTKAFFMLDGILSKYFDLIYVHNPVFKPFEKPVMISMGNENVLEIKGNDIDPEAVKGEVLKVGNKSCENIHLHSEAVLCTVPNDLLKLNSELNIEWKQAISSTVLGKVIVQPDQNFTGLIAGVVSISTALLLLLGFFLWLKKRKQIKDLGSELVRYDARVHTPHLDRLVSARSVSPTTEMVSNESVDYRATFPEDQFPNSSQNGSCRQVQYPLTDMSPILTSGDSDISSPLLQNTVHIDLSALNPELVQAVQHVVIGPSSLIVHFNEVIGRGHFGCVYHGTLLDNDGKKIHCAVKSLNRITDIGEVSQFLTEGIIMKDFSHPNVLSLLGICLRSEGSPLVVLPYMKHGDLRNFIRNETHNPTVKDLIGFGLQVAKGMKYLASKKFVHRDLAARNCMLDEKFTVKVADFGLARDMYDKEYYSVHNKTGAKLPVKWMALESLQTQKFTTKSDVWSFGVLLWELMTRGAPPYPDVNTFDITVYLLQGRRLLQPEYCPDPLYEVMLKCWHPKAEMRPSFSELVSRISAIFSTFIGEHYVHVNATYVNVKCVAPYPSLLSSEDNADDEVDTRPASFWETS
GSK3β, sequence (P49841 whole entry, species assumed): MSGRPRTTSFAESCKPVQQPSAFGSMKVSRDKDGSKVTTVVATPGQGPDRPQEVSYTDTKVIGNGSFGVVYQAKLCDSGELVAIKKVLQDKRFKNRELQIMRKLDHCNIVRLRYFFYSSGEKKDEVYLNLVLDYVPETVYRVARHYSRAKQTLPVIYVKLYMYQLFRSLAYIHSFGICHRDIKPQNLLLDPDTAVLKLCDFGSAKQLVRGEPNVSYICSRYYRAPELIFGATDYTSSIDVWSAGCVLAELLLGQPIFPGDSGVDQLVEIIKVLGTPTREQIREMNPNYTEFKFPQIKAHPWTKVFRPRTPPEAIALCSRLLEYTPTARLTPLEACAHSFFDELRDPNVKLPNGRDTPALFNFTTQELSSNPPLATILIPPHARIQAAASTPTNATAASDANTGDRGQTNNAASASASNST
ROCK1, sequence (Q13464 whole entry, species assumed): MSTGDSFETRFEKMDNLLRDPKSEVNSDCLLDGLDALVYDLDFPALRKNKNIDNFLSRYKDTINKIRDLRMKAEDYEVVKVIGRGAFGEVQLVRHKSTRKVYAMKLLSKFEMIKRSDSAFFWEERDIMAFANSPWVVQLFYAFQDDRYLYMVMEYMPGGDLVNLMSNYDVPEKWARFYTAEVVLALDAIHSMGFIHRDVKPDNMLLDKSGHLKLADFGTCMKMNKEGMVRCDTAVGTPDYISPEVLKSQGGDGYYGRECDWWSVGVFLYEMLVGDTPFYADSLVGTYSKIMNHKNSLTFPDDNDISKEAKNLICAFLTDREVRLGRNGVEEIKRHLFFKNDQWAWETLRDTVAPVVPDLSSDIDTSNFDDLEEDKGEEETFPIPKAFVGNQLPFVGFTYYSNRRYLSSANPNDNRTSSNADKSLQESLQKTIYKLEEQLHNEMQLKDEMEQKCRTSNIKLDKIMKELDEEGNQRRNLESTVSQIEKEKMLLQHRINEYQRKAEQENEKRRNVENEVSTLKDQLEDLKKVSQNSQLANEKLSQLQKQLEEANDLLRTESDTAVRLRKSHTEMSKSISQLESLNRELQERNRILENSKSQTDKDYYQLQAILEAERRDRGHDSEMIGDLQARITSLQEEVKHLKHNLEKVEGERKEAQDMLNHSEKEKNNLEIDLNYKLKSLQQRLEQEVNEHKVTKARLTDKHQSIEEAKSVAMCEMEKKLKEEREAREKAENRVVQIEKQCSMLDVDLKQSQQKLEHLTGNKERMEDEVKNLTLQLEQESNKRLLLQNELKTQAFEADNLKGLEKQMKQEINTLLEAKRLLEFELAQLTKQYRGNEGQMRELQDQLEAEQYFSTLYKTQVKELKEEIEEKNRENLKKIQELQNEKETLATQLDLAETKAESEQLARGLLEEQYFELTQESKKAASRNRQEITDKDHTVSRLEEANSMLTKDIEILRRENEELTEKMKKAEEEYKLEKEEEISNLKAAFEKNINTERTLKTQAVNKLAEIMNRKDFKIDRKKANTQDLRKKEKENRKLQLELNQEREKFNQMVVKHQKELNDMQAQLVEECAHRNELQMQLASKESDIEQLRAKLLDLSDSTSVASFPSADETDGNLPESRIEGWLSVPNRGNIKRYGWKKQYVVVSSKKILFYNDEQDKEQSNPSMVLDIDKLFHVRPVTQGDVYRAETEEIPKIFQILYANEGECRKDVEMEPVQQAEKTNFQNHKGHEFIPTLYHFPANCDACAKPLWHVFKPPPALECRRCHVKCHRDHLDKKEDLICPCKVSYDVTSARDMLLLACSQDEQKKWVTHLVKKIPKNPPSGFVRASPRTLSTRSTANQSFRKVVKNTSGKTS
ERK2, sequence (P28482 whole entry, species assumed): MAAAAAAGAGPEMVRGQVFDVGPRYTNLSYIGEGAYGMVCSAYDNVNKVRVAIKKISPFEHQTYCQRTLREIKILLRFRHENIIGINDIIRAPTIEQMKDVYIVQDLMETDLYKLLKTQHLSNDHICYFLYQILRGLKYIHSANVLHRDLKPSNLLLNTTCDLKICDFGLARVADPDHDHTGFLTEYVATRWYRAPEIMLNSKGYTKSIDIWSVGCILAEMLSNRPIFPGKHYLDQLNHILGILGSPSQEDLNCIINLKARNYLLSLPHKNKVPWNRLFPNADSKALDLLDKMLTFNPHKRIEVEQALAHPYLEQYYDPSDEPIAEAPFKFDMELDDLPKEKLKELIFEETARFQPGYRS
JNK2, sequence (P45984 whole entry, species assumed): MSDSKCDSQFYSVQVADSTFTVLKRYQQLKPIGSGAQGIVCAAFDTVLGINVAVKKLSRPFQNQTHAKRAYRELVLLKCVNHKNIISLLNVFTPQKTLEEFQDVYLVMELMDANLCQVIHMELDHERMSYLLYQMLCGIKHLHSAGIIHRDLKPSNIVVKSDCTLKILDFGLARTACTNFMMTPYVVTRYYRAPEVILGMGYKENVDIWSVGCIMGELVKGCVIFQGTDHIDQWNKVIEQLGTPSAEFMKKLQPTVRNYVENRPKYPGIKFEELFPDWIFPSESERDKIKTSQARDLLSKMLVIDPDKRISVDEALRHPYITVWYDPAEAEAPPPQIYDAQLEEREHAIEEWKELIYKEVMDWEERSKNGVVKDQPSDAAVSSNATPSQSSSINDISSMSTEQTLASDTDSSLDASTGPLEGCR
p38, sequence (Q16539 whole entry): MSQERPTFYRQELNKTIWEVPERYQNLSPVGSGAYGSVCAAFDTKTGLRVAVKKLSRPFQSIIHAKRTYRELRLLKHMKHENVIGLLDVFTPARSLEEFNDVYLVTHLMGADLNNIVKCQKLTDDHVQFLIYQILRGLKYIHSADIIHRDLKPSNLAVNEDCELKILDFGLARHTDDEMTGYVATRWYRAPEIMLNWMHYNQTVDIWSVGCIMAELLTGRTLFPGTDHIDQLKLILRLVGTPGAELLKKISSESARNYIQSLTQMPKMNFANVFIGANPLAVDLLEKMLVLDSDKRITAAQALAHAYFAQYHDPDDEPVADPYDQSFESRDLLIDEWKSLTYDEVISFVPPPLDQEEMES

`Fc1ccc(-c2noc(CN3CCCCC3)c2-c2ccnc(NC3CCCCC3)n2)cc1` [V-05-015]: the Ki on CDK2 is over 1000 nM; at ERK2 it was over 1000 nM; at GSK3β (read-out: Ki or IC50 GSK3β) it was over 1000 nM; at JNK2 it was 4 nM; on MKK4, over 1000 nM; on PKA it was over 1000 nM. For the same compound, the Ki at ROCK1 and at cMET was over 1000 nM each time. The concentration for half-maximal inhibition (IC50) at p38 (read-out: IC50 p38 (footnote: this one value is an IC50, not a Ki)) came to 8 nM. Further, in assay [1], the “Pulmonary Inflation Pressure (baseline)” value amounted to 213±7 mmH2O. The “effect on ozone-induced potentiation of vagally induced bronchoconstriction” value (shortened to “effect … of vagally induced bronchoconstriction”) in assay [2] is “completely prevented ozone-induced airway hyperreactivity”. For the same compound, in [3], the “effect on ozone-induced M2 receptor dysfunction” value is given as “completely protected M2 receptor function”. Besides, the “bronchoconstriction in response to intravenous acetylcholine” value in assay [4] (air-exposed, 30 mg/kg ip) is listed as “hyperreactive to intravenous acetylcholine”. In [4], the “effect on ozone-induced potentiation of bronchoconstriction to intravenous acetylcholine” value (“effect … to intravenous acetylcholine” for short) is given as “attenuated ozone-induced smooth muscle hyperreactivity”. In [5], the “effect on ozone-induced potentiation of vagally mediated falls in heart rate” value (“effect … in heart rate” below) is “prevented the ozone-induced potentiation of frequency induced falls in heart rate”.
Regarding `OC[C@@H]1CCCN1Cc1onc(-c2ccc(F)cc2)c1-c1ccnc(NC2CCCCC2)n1` [V-05-014], the Ki on CDK2 is over 1000 nM; at ERK2, over 1000 nM; on GSK3β (read-out: Ki or IC50 GSK3β) it was over 1000 nM; on JNK2 it was 15 nM; at MKK4, over 1000 nM; at PKA it was over 1000 nM. Moreover, the Ki on ROCK1 was over 1000 nM; at cMET it was over 1000 nM; at p38 it was 15 nM. Moreover, the “Pulmonary Inflation Pressure (baseline)” value in [1] worked out at 225±5 mmH2O. The “effect … of vagally induced bronchoconstriction” value in [2] is “completely prevented ozone-induced airway hyperreactivity”. The “effect on ozone-induced M2 receptor dysfunction” value in [3] is “completely protected M2 receptor function”. The “effect … to intravenous acetylcholine” value in assay [4] is reported as “not blocked”. In addition, the “effect … in heart rate” value in assay [5] is listed as “prevented the ozone-induced potentiation of frequency induced falls in heart rate”.
Consider `OC1CCN(Cc2onc(-c3ccc(F)cc3)c2-c2ccnc(NC3CCCCC3)n2)CC1` [V-05-013], for which the Ki on CDK2 is over 1000 nM; on ERK2, over 1000 nM; at GSK3β (read-out: GSK3β Ki), 730 nM; on JNK2, 10 nM; at MKK4, over 1000 nM; at PKA, over 1000 nM. Further, the Ki on ROCK1 was over 1000 nM; at cMET, over 1000 nM; at p38 it was 13 nM. In addition, the “Pulmonary Inflation Pressure (baseline)” value in [1] was 190±15 ^‡ mmH2O. Further, the “effect … of vagally induced bronchoconstriction” value in assay [2] is listed as “completely prevented ozone-induced airway hyperreactivity”. In addition, the “effect on ozone-induced M2 receptor dysfunction” value in assay [3] was “partially prevented M2 receptor dysfunction”. In addition, the “effect … to intravenous acetylcholine” value in assay [4] is “not blocked”. Moreover, the “effect … in heart rate” value in assay [5] was “prevented the ozone-induced potentiation of frequency induced falls in heart rate”.

What is called Ki is the dissociation constant of the complex between target and ligand, obtained from inhibition or displacement. What is called IC50 is the point on the concentration scale where inhibition reaches its midpoint.
